System: PMA induced ear oedema
Experiment: Phorbol 12-myristate 13-acetate induced ear oedema in CD1 mice
Format: in vivo
Method: Male CD1 mice (Iffa Credo, France) weighing 30-40 g were randomly grouped (n=6 in test group of which the untreated ear served as negative control; 6 in positive control group which also served as their own negative control group). Test compounds, as well as vehicle (Trans-phase Delivery System, containing benzyl alcohol 10%, acetone 40% and isopropanol 50%) (all from Kemika, Croatia), were administered topically to the internal surface of the left ear thirty minutes prior to administration of phorbol 12-myristate 13-acetate (PMA) (Sigma, USA). Test compounds were administered at a dose of 100, 250 or 500 μg/15 μL/ear. Thirty minutes later, 0.01% PMA solution in acetone was applied topically to the inner surface of the left ear of each animal in a volume of 12 μL/ear. During the treatment and challenge (stimulation), animals were anaesthetized with anaesthesia by inhalation. Six hours following challenge, animals were euthanized by intraperitoneal thiopental injection (PLIVA, Croatia). For assessing the auricular oedema, 8 mm discs were cut out of left and right auricular pinna and weighed. The degree of oedema was calculated by subtracting the weight of 8 mm disc of the untreated ear from that of the treated contralateral ear. The inhibition of oedema in the treated animals, presented in the Table 8, is expressed as percentage compared to control mice (0%).

SMILES	Oedema (% inhibition) (100 μg/ear topical) [%]	Oedema (% inhibition) (250 μg/ear topical) [%]	Oedema (% inhibition) (500 μg/ear topical) [%]
CCC1OC(=O)C(C)C(OC2CC(C)(OC)C(OC(=O)CCN(CC)CC)C(C)O2)C(C)C(OC2OC(C)CC(N(C)C)C2O)C(C)(OC)CC(C)C(=O)NC(C)C(O)C1(C)O (stereo not drawn) [Example 8, 4″-O-(3-Diethylamino-propionyl)-6-O-methyl-9a-aza-9a-homoerythromycin A]	54	74	94
CC[C@H]1OC(=O)[C@H](C)[C@@H](O[C@H]2C[C@@](C)(OC)[C@@H](O)[C@H](C)O2)[C@H](C)[C@@H](O[C@@H]2O[C@H](C)C[C@H](N(C)C)[C@H]2O)[C@](C)(O)C[C@@H](C)CN(C)[C@H](C)[C@@H](O)[C@]1(C)O [azithromycin, reference compound]	0	83	90
